Compound `Nc1cccc2c1CN(C(CCC(=O)O)C(=O)O)C2=O` (stereo not shown) [Example 14, 1-(4-Amino-1-oxoisoindolin-2-yl)propane-1,3-dicarboxylic acid] has a melting point of 183 to 185 °C. Work on `Nc1cccc2c1C(=O)N(C(CCC(=O)O)C(=O)O)C2=O` (stereo not shown) [Example 16, 1-(4-Amino-1,3-dioxoisoindolin-2-yl)propane-1,3-dicarboxylic acid] yielded a melting point of 198 to 200 °C. `NC(=O)CCC(C(=O)O)N1C(=O)c2cccc([N+](=O)[O-])c2C1=O` (stereo not shown) [Example 17, 2-(4-Nitro-1,3-dioxoisoindolin-2-yl)-4-carbamoylbutanoic acid] showed a melting point of 182 to 184 °C. In the case of `NC(=O)CCC(C(=O)O)N1C(=O)c2cccc(N)c2C1=O` (stereo not shown) [Example 18, 2-(4-Amino-1,3-dioxoisoindolin-2-yl)-4-carbamoylbutanoic acid], the melting point was 165 to 167 °C.

Source: patent US6380239B1, “Substituted 1-oxo- and 1,3-dioxoisoindoline and method of reducing inflammatory cytokine levels” (Celgene Corporation, priority 1999, dated 2002)
